For data set [1] the following is noted: same tristearin carriers; cited from earlier work.
For data set [2] the following is noted: rodents and humans, ranging from a few minutes to 30 min; cited from earlier work.
For data set [3] the following is noted: rat brain homogenates, cited from earlier work; for amount hydrolyzed: within 6 h.
The conditions of data set [4]: rat liver homogenates, cited from earlier work.
Details of data set [5]: method as in PMID 10669289. The note with it: 1-octanol/water; cited from earlier work.
Data set [6] concerns differentiated N2a cells. Kind of data set: DCFH-DA assay of intracellular ROS production. The format is cell-based, mouse. The method, then:
(§1) N2a cells were seeded on T75 flasks and grown in Dulbecco’s Modified Eagle Medium (DMEM) containing Glutamax, supplemented with 100 μg/mL streptomycin, 100 IU/mL penicillin, and 10% fetal bovine serum (FBS) in a humidified 5% CO2 atmosphere at 37 °C. After two passages by trypsinization, cells were seeded at a density of 5 × 10^3 cells/well in 12-well plates with 2 mL of DMEM or at a density of 5 × 10^2 cells/well in 96-well plates with 0.2 mL of DMEM, depending on the study (see below). For neural differentiation, N2a cells were allowed to adhere and proliferate in wells for 4 days; then, after washing once with serum-free DMEM, differentiating medium composed of DMEM containing 1% HS and 20 μM all-trans-retinoic acid (atRA) was added in both the seeding conditions, up to 6 days of differentiation, after which the cells were used for the experiments.
The potential antioxidant effect of Fer-Ger was evaluated according to the original method of Wang and Joseph. In this method, the nonpolar 2′,7′-dichlorofluorescin diacetate (DCFH-DA) enters the intact cells and is hydrolyzed by intracellular esterases to nonfluorescent DCFH carboxylate anion, which remains entrapped and becomes the high fluorescent dichlorofluorescin (DCF) after oxidation by free radicals generated by a stressor, such as H2O2. Therefore, H2O2-induced intracellular ROS production was measured in N2a cells by a florescence intensity assay following exposure to the oxidation-sensitive dye DCFH-DA. N2a cells were seeded at a density of 1 × 10^4 cells/well in a black-coated and clear bottom 96-well plate and neuron-differentiated as reported above. After 6 days, differentiating medium in N2a cells was replaced with pre-warmed phenol-red-free and serum-free DMEM containing 10 µM DCFH-DA and incubated for 30 min in the dark in a humidified 5% CO2 atmosphere at 37 °C. The 10 µM DCFH-DA loading solution was then removed, and the cells were washed twice with fresh phenol-red-free and serum-free DMEM to remove the redundant extracellular DCFH-DA probe. Subsequently, N2a cells were incubated with pre-warmed phenol-red free DMEM containing 1% FBS as an untreated control and with solutions dissolved in phenol-red free DMEM containing 1% FBS of Fer-Ger (1, 5, or 10 µM) or 100 µM ascorbic acid (AA, as an established antioxidant positive control) and incubated for 1 h in a humidified 5% CO2 atmosphere at 37 °C. After this time, 100 µM H2O2 was added in the absence or presence of 1, 5 or 10 µM Fer-Ger or 100 µM AA, and the fluorescence intensity was measured at an excitation wavelength of 485 nm and at an emission wavelength of 530 nm, monitoring the oxidation of DCFH to DCF by the intracellular ROS by running the kinetic over 75 min in a fluorescence microplate reader (VICTOR^3TM 1420 Multilabel counter, PerkinElmer, Milan, Italy). Results were represented as a percentage of intracellular ROS production (100% of control) resulting from the mean values ± SEM of sextuplicate wells over time.

The subject of data set [7] is differentiated N2a cells. Kind of data set: MTT assay of H2O2-altered viability (neuroprotection). Format: cell-based, mouse. The note with it: 100 µM H2O2 for 24 h. As to the method: as §1
The MTT assay was also carried out to determine the neuroprotective effect of Fer-Ger on H2O2-induced cell oxidative stress in N2a neuronal cells. Briefly, N2a cells (5 × 10^2) were seeded and differentiated into 96-well plates, as reported above. Then, cells were incubated with 1 µM and 5 µM Fer-Ger dissolved in DMEM containing 0.5% HS for 1 h in a humidified 5% CO2 atmosphere at 37 °C. The experimental design therefore included cells incubated with only culture medium as a control and cells incubated for 24 h with 100 µM H2O2 as a damage-inducing agent after 1 h of preincubation in the absence or presence of 1 µM or 5 µM Fer-Ger. Then, 20 μL of MTT (5 mg/mL) was added into the 200 µL of the incubation medium. Four hours later, the medium containing MTT was aspirated and replaced by 100 µL of dimethyl sulfoxide (DMSO) solubilization agent for 1 h at 37 °C in an orbital shaker incubator. Finally, the absorbance of each well was measured at 570 nm using a microtiter plate reader (Sunrise® Microplate Reader, Tecan Trading AG, Männedorf, Switzerland).
For orientation: Tetrazolium dyes change colour on reduction, which living cells bring about.

Here are results for 9 compounds from paper PMC11172460 (International Journal of Molecular Sciences, 2024).

Structures are written as SMILES. Read-outs that look alike come from different tables or passages of the source. A value given as a limit tells only on which side of the number the result lay.

In general, Log P refers to the decadic logarithm of the partition coefficient of the neutral form, usually between octanol and water.

Take `COc1cc(/C=C/C(=O)O)ccc1O` [Fer, ferulic acid]: in data set [1], the drug loading was 0.38 % w/w and the “encapsulation efficiency (EE)” value was “about 14%”. In addition, in data set [2], the in vivo half-lives is reported as at most 30 min.
For `COC(=O)/C=C/c1ccc(OC(=O)/C=C/c2ccc(O)c(OC)c2)c(OC)c1` [Fer-Fer-Me], the half-life of hydrolysis result in data set [3] is reported as “about 14 min”. In data set [1], the drug loading is 0.49 % w/w and the “encapsulation efficiency (EE)” value is “about 19%”.
With `COc1cc(C=CC(=O)Oc2ccc(C=CC(=O)O)cc2OC)ccc1O` [Fer-Fer], the amount hydrolyzed entry in data set [3] is given as “about 50%”.
Regarding `COC(=O)/C=C/c1ccc(O)c(OC)c1` [Fer-Me], in data set [3], the hydrolysis entry was “total absence of hydrolysis processes”. Moreover, in data set [1], the drug loading is 0.72 % w/w and the “encapsulation efficiency (EE)” value was “about 28%”.
As for `CC(C)=CCCC(C)=CCOC(=O)CCC(C)C1CCC2C3C(O)CC4CC(O)CCC4(C)C3CCC12C` (stereo not shown) [GER-UDCA], in data set [3], the amount hydrolyzed entry is given as “about 30%”. In data set [4], the half-life of hydrolysis entry was “higher than 30 min”.
`CC(C)=CCC/C(C)=C/CO` [Ger, geraniol]: the “Log P” value in data set [5] is listed as 3.56. Also, the in vivo half-lives in data set [2] is recorded as at most 30 min.
For the compound `OO` [H2O2, hydrogen peroxide, reference compound], the “effect on DCF fluorescence (ROS production)” value in the data set with differentiated N2a cells [6] (100 µM H2O2, 75 min observation) is “significantly and time-dependently increased DCF fluorescence”. Further, the “reduction of cell viability compared to untreated cells” value in the data set on differentiated N2a cells [7] is on record as 74%.
Turning to `Cc1cn([C@H]2C[C@H](N=[N+]=[N-])[C@@H](COC(=O)CC[C@@H](C)[C@H]3CC[C@H]4[C@@H]5[C@@H](O)C[C@@H]6C[C@H](O)CC[C@]6(C)[C@H]5CC[C@]34C)O2)c(=O)[nH]c1=O` [UDCA-AZT], the half-life of hydrolysis entry in data set [3] was “about 7 min”. In addition, in data set [1], the drug loading is 0.57 % w/w and the “encapsulation efficiency (EE)” value was “about 26%”. Further, the hydrolysis rate entry in data set [4] (ref our previous results) was “the same hydrolysis rate as Fer-Ger”.
Turning to `O=C1O[C@H]([C@@H](O)CO)C(O)=C1O` [ascorbic acid], in the data set on differentiated N2a cells [6] (100 µM ascorbic acid alone), the “effect on basal ROS production” value was “without by itself modifying basal ROS production”. Further, the “effect on H2O2-induced ROS production” value in the data set with differentiated N2a cells [6] (100 µM ascorbic acid with 100 µM H2O2) is listed as “completely prevented the H2O2-induced ROS production”.
